# In ChEMBL document CHEMBL1201862, “PubChem BioAssay data set” (2004):
#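 How tested: cells in 96-well plates exposed to compound for 48 hours at five concentrations. Abbreviation: GI50, concentration required for 50% inhibition of growth.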 Activity calls are given as the source filed them. Rule as the data show it: active = GI50 up to about 1.1 µM and inactive = higher.
# Assays:
# Experiment in all cases: growth of human tumour cells (NCI), 48 h
# SNB-19 = tested on: SNB-19
# MCF7 = tested on: MCF7
# OVCAR-3 = tested on: OVCAR-3
# OVCAR-4 = tested on: OVCAR-4
# BT-549 = tested on: BT-549
# IGROV-1 = tested on: IGROV-1
# SK-MEL-5 = tested on: SK-MEL-5
# TK-10 = tested on: TK-10
# COLO 205 = tested on: COLO 205
# CAKI-1 = tested on: CAKI-1
# NCI-H460 = tested on: NCI-H460
# NCI/ADR-RES = tested on: NCI/ADR-RES
# NCI-H522 = tested on: NCI-H522
# HOP-62 = tested on: HOP-62
# SW-620 = tested on: SW-620
# SF-295 = tested on: SF-295
# RPMI-8226 = tested on: RPMI-8226
# SN12C = tested on: SN12C
# HCC 2998 = tested on: HCC 2998
Compound,GI50 (SNB-19),GI50 (MCF7),GI50 (OVCAR-3),GI50 (OVCAR-4),GI50 (BT-549),GI50 (IGROV-1),GI50 (SK-MEL-5),GI50 (TK-10),GI50 (COLO 205),GI50 (CAKI-1),GI50 (NCI-H460),GI50 (NCI/ADR-RES),GI50 (NCI-H522),GI50 (HOP-62),GI50 (SW-620),GI50 (SF-295),GI50 (RPMI-8226),GI50 (SN12C),GI50 (HCC 2998)
c1ccc(C2=Nc3nc4ccccc4n3C(c3ccccc3)C2)cc1 (configuration not stated),44.8 µM (inactive),> 100 µM (inactive),> 100 µM (inactive),> 100 µM (inactive),> 100 µM (inactive),> 100 µM (inactive),> 100 µM (inactive),> 100 µM (inactive),> 100 µM (inactive),> 100 µM (inactive),> 100 µM (inactive),> 100 µM (inactive),> 100 µM (inactive),36 µM (inactive),> 100 µM (inactive),79.8 µM (inactive),> 100 µM (inactive),–,–
COc1cc(/C=C/C(=O)CC(=O)/C=C/c2ccc(OC(=O)CCCCC3CCSS3)c(OC)c2)ccc1OC(=O)CCCCC1CCSS1 (configuration not stated),> 100 µM (inactive),> 100 µM (inactive),> 100 µM (inactive),> 100 µM (inactive),> 100 µM (inactive),> 100 µM (inactive),> 100 µM (inactive),> 100 µM (inactive),> 100 µM (inactive),–,> 100 µM (inactive),> 100 µM (inactive),> 100 µM (inactive),> 100 µM (inactive),> 100 µM (inactive),> 100 µM (inactive),> 100 µM (inactive),> 100 µM (inactive),–
CCC1(C)NC(c2cnccn2)=NN1c1ccc(Cl)cc1 (configuration not stated),> 100 µM (inactive),45.4 µM (inactive),39.8 µM (inactive),63.2 µM (inactive),> 100 µM (inactive),> 100 µM (inactive),> 100 µM (inactive),70.3 µM (inactive),> 100 µM (inactive),> 100 µM (inactive),81.7 µM (inactive),> 100 µM (inactive),> 100 µM (inactive),> 100 µM (inactive),45.3 µM (inactive),> 100 µM (inactive),30 µM (inactive),29 µM (inactive),–
COc1cc(/C=N/NC(=O)c2ccc(NC(C)=O)cc2OC)ccc1O,74.3 µM (inactive),> 100 µM (inactive),> 100 µM (inactive),> 100 µM (inactive),> 100 µM (inactive),64 µM (inactive),> 100 µM (inactive),–,56.1 µM (inactive),> 100 µM (inactive),–,> 100 µM (inactive),96.2 µM (inactive),–,> 100 µM (inactive),55 µM (inactive),> 100 µM (inactive),> 100 µM (inactive),–
CC(=O)Oc1c(OC(C)C)c(C)c(O[Si](C(C)C)(C(C)C)C(C)C)c2[nH]c3ccccc3c12,> 100 µM (inactive),56.6 µM (inactive),> 100 µM (inactive),57.8 µM (inactive),> 100 µM (inactive),> 100 µM (inactive),> 100 µM (inactive),> 100 µM (inactive),> 100 µM (inactive),67.1 µM (inactive),> 100 µM (inactive),> 100 µM (inactive),34.6 µM (inactive),> 100 µM (inactive),> 83.4 µM (inactive),76.2 µM (inactive),71.1 µM (inactive),> 69 µM (inactive),–
NC1(CCNC(=O)c2ccccc2)CCN(C(=O)c2ccccc2)CC1,> 100 µM (inactive),> 100 µM (inactive),–,–,> 100 µM (inactive),> 100 µM (inactive),> 100 µM (inactive),> 100 µM (inactive),41.7 µM (inactive),> 100 µM (inactive),> 100 µM (inactive),> 100 µM (inactive),3.67 µM (inactive),–,> 100 µM (inactive),> 100 µM (inactive),> 100 µM (inactive),> 100 µM (inactive),–
Clc1cccc(Cl)c1C1SCc2nc3ncccc3n21 (configuration not stated),> 100 µM (inactive),–,44.1 µM (inactive),52.2 µM (inactive),–,> 100 µM (inactive),65.8 µM (inactive),> 100 µM (inactive),> 100 µM (inactive),8.07 µM (inactive),> 100 µM (inactive),> 100 µM (inactive),> 100 µM (inactive),> 100 µM (inactive),> 100 µM (inactive),> 100 µM (inactive),80.4 µM (inactive),> 100 µM (inactive),> 100 µM (inactive)
CC(C)[Si](OC1=C(C(=O)N(C)c2ccccc2Cl)CCC1)(C(C)C)C(C)C,15.8 µM (inactive),–,16.7 µM (inactive),16.3 µM (inactive),15.8 µM (inactive),18.3 µM (inactive),24.8 µM (inactive),17.8 µM (inactive),17.8 µM (inactive),18.7 µM (inactive),22.4 µM (inactive),16.2 µM (inactive),14.1 µM (inactive),17.6 µM (inactive),24 µM (inactive),14.2 µM (inactive),19.2 µM (inactive),16.7 µM (inactive),–
CCOC(=O)c1c(N2CCCC2)ncn(C)c1=S,> 100 µM (inactive),> 100 µM (inactive),> 100 µM (inactive),> 100 µM (inactive),–,> 100 µM (inactive),> 100 µM (inactive),> 100 µM (inactive),> 100 µM (inactive),> 100 µM (inactive),> 100 µM (inactive),> 100 µM (inactive),> 100 µM (inactive),> 100 µM (inactive),> 100 µM (inactive),> 100 µM (inactive),> 100 µM (inactive),> 100 µM (inactive),> 100 µM (inactive)
O=c1cc(CC(O)(C(F)(F)Cl)C(F)(F)Cl)[nH]n1-c1ccccc1,> 100 µM (inactive),> 100 µM (inactive),–,> 100 µM (inactive),–,> 100 µM (inactive),> 100 µM (inactive),> 100 µM (inactive),> 100 µM (inactive),–,> 100 µM (inactive),> 100 µM (inactive),–,> 100 µM (inactive),> 100 µM (inactive),> 100 µM (inactive),> 100 µM (inactive),> 100 µM (inactive),> 100 µM (inactive)
COc1cccc2c1-c1nc(N)c3c(OC)cccc3c1C2=O,–,> 100 µM (inactive),> 100 µM (inactive),62.8 µM (inactive),> 100 µM (inactive),> 100 µM (inactive),> 100 µM (inactive),> 100 µM (inactive),> 100 µM (inactive),> 100 µM (inactive),–,> 100 µM (inactive),> 100 µM (inactive),22.8 µM (inactive),> 100 µM (inactive),> 100 µM (inactive),> 100 µM (inactive),95.1 µM (inactive),–
c1ccc(-c2cccc(-c3ccccn3)n2)nc1 [TERPYRIDINE],0.935 µM (active),0.394 µM (active),0.316 µM (active),0.558 µM (active),–,0.48 µM (active),0.246 µM (active),0.847 µM (active),0.254 µM (active),0.527 µM (active),0.382 µM (active),0.321 µM (active),0.489 µM (active),0.52 µM (active),1.06 µM (active),0.288 µM (active),0.315 µM (active),0.631 µM (active),0.298 µM (active)
O=C(O)/C(=C\c1ccc(O)cc1)c1cccc2ccccc12,> 100 µM (inactive),–,64.4 µM (inactive),> 100 µM (inactive),> 100 µM (inactive),> 100 µM (inactive),> 100 µM (inactive),> 100 µM (inactive),–,> 100 µM (inactive),> 100 µM (inactive),> 100 µM (inactive),> 100 µM (inactive),35 µM (inactive),> 100 µM (inactive),> 100 µM (inactive),–,> 100 µM (inactive),> 100 µM (inactive)
CC1(C)Oc2ccc3c(=O)cc(-c4cccs4)oc3c2C1C(=O)O (configuration not stated),–,> 100 µM (inactive),> 100 µM (inactive),–,–,> 100 µM (inactive),> 100 µM (inactive),> 100 µM (inactive),> 100 µM (inactive),23.2 µM (inactive),–,> 100 µM (inactive),> 100 µM (inactive),> 100 µM (inactive),–,> 100 µM (inactive),–,> 100 µM (inactive),> 100 µM (inactive)
CN(C(=O)C1=CCC2(CC1)OCCO2)c1ccccc1OS(=O)(=O)C(F)(F)F,> 100 µM (inactive),> 100 µM (inactive),> 100 µM (inactive),57.8 µM (inactive),–,–,> 100 µM (inactive),–,> 100 µM (inactive),> 100 µM (inactive),85.3 µM (inactive),53.3 µM (inactive),–,27.4 µM (inactive),> 100 µM (inactive),90.2 µM (inactive),> 100 µM (inactive),> 100 µM (inactive),> 100 µM (inactive)
CC(C)(C)OC(=O)n1cc(C2CN(O)C(=O)C23CCC(=O)N3Cc2ccccc2)c2ccccc21 (configuration not stated),68.7 µM (inactive),33.5 µM (inactive),66.5 µM (inactive),98.9 µM (inactive),–,18.8 µM (inactive),29.4 µM (inactive),32.8 µM (inactive),36.1 µM (inactive),54.6 µM (inactive),56.4 µM (inactive),69.5 µM (inactive),14.1 µM (inactive),93.1 µM (inactive),68.7 µM (inactive),78.5 µM (inactive),31.6 µM (inactive),27 µM (inactive),–
